# Measured values taken from US11254722B2, “Recombinant proteins and uses thereof” (ACADEMIA SINICA, priority 2017, dated 2022).
# What was measured:
# [1] = test system: MCF-7 breast cancer cells; experiment: MCF-7 proliferation assay; format: cell-based
# How it was run: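 MCF-7 cells seeded at 1,000–6,000/well in serum-free DMEM/F12 with 0.2% BSA and 10 ug/ml transferrin; proliferation induced by growth factors (IGF-1, IGF-2, EGF, TGF-a, Nrgbx, b-FGF, amphiregulin); test chimeras added at plating or 16–20 h later. Growth read after 3–4 days by Alamar blue fluorescence (544/590 nm, 4–6 h).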
# [2] = biological target: T1, nrgEGF (amino acids Thr176-Lys246 of neuregulin-beta 1) (Homo sapiens, UniProt Q02297); experiment: Biacore binding to nrgEGF
# T1 construct: Thr176-Lys246 of neuregulin-beta 1; purchased R&D Sciences or SinoBiologicals
# T1 sequence (Q02297 176-246 isoform Q02297-6): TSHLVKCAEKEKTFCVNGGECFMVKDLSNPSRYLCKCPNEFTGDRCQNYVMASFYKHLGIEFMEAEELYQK
# Description: Biacore binding was performed at David Myszka's laboratory at the University of Utah or at the Genomic Research Center at Academia Sinica. Surfaces of binding protein chimera were made via chemical immobilization on a CM4 chip using standard amine coupling chemistry. […] Excess surface carboxyl activated sites on all four flow cells was blocked using the doubly positively charged species ethylenediamine. Binding experiments (but not immobilizations) in HBS-P (10 mM HEPES pH 7.4, 150 mM NaCl, 0.05% P20), The HBS-P was supplemented with BSA at 0.2 mg/mL, or HBS-P was supplemented with 500 mM NaCl (650 mM NaCl, final concentration). Analytes were also reconstituted in the corresponding buffer. All experiments were performed at 25° C. 1/150 dilutions of phosphoric acid were used to regenerate IGFBP3-Fc surfaces and a sequence of 3 M MgCl2 followed by 5 M GuCl was used to regenerate surfaces immobilized with growth factor. Dissociation constants reported below used immobilized binding protein unless noted. Differences between binding constants may be expected between growth factor immobilization and chimera immobilization.
# In this example, erbB4 domain 1 was attached to the N-terminus of the recombinant IGFBP3-Fc or the recombinant IGFBP3-v1v2-Fc.
# [3] = test system: HUVEC cells; experiment: HUVEC proliferation assay; format: cell-based; conditions: HGF-induced, HUVEC
# How it was run: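 HUVEC, 5,000 per well, plated on poly-L-lysine in M199 with 1% FBS and HEPES. After 3 to 4 days of culture, growth read by Alamar blue incubation for 4 to 6 hours, fluorescence (RFU) at 544/590 nm.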
substance,measurement,setting,value
"56662: IGFBP3-Fc, SEQ ID NO: 7; unmodified IGFBP3 fused with the IgG Fc portion [compound 56662]","In vitro inhibition of proliferation, EGF","[1]; EGF-induced, MCF-7 cells",yes
same,"In vitro inhibition of proliferation, IGF-1","[1]; IGF-1-induced, MCF-7 cells",yes
same,"In vitro inhibition of proliferation, IGF-2","[1]; IGF-2-induced, MCF-7 cells",yes
same,"In vitro inhibition of proliferation, TGF-α","[1]; TGF-α-induced, MCF-7 cells",yes
same,"In vitro inhibition of proliferation, VEGF-165","[1]; VEGF-165, MCF-7 cells per footnote",no
same,"In vitro inhibition of proliferation, bFGF","[1]; bFGF-induced, MCF-7 cells",yes
same,inhibition of FBS-induced proliferation of MCF-7,"[1]; fetal bovine serum, FIG. 1, FIG. 4",inhibited
same,inhibition of proliferation induced by long-R3-IGF-1,"[1]; high concentrations of 56662, FIG. 2",can inhibit
same,"In vitro inhibition of proliferation, neuregulin","[1]; neuregulin-induced, MCF-7 cells",yes
same,Kd nrgEGF,[2],No binding
same,"In vitro inhibition of proliferation, HGF",[3],"yes (hep3B, HUVEC)"
